Source: patent US9216999B2, “Substituted pyrrolo[2,3-h][1,6]naphthyridines and compositions thereof as JAK inhibitors” (priority 2011, dated 2015)

Assays:
Format in all cases: biochemical
Settings in all cases: ATP 100 μM
JAK3 = JAK3 (Homo sapiens (Human), UniProt P52333); assay: Enzyme assay (Assay Example^a 1), JAK3
JAK1 = JAK1 (Homo sapiens (Human), UniProt P23458); assay: Enzyme assay (Assay Example^a 1), JAK1
JAK2 = JAK2 (Homo sapiens (Human), UniProt O60674); assay: Enzyme assay (Assay Example^a 1), JAK2
Tyk2 = Tyk2 (Homo sapiens (Human), UniProt P29597); assay: Enzyme assay (Assay Example^a 1), Tyk2
Sequence of Tyk2 (P29597 whole entry): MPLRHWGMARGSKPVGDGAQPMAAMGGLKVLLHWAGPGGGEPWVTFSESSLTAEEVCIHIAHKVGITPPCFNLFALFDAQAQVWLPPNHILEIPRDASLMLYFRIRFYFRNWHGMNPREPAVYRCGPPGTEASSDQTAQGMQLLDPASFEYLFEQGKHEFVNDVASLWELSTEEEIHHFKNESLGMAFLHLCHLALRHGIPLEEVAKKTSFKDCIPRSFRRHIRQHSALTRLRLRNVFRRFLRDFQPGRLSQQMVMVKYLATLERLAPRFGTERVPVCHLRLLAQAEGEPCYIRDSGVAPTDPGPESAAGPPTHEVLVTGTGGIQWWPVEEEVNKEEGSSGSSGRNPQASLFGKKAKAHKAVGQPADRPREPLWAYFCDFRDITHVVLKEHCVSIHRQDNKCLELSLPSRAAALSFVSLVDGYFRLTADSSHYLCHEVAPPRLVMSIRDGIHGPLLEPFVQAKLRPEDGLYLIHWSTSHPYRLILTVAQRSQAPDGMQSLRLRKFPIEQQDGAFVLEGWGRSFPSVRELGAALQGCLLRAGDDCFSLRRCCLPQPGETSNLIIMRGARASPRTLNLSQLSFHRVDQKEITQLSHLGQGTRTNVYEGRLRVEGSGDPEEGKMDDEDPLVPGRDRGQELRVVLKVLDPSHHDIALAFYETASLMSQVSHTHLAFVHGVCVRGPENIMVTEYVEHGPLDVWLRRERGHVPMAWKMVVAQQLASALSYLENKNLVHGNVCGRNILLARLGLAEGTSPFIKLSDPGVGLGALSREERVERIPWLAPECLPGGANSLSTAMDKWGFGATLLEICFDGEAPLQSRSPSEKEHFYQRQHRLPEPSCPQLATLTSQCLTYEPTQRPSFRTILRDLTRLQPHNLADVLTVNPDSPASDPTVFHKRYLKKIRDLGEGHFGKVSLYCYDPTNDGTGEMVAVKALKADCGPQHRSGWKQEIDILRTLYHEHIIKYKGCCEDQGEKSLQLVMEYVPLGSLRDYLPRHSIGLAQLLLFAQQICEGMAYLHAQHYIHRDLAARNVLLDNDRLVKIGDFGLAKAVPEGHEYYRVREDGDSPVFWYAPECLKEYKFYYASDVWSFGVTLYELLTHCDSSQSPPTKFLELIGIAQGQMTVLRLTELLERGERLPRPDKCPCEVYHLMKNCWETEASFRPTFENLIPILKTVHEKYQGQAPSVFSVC

Sequence of JAK3 (P52333 whole entry): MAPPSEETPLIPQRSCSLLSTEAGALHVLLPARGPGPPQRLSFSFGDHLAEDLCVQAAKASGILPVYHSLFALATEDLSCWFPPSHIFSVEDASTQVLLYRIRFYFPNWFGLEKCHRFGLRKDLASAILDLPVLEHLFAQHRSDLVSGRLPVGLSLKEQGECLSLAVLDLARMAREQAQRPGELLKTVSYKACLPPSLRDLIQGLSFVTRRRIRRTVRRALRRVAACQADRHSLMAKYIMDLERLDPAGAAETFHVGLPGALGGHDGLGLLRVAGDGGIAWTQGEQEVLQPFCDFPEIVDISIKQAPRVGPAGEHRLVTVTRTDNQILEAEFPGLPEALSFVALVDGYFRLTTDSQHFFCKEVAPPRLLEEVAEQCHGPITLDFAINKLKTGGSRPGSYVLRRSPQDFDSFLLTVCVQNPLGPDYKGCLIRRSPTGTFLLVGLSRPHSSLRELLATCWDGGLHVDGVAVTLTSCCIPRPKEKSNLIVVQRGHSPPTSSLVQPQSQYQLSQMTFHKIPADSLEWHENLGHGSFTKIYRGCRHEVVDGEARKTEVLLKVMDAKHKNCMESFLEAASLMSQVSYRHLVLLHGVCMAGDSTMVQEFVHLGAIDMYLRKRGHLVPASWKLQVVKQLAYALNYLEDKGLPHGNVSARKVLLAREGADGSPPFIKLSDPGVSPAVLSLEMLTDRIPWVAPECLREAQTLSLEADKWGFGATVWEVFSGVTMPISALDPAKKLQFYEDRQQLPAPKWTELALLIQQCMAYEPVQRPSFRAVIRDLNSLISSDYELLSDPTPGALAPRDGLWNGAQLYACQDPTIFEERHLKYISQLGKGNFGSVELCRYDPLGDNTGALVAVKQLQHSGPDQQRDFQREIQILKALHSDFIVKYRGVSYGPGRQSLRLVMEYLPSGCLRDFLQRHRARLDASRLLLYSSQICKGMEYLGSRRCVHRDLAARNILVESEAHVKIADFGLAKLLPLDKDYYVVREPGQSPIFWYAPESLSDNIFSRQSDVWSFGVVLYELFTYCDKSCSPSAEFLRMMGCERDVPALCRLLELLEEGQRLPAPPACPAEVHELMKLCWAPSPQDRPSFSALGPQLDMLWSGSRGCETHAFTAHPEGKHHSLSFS

| SMILES | IC50 (JAK3) | IC50 (JAK1) | IC50 (JAK2) | IC50 (Tyk2) |
| --- | --- | --- | --- | --- |
| O=C([C@H]1CC[C@H](c2nnn3cnc4[nH]ccc4c23)CC1)N1CC[C@H](O)C1 [compound 358, [trans-4-(7H-pyrrolo[3,2-e][1,2,3]triazolo[1,5-c]pyrimidin-1-yl)cyclohexyl][(S)-3-hydroxypyrrolidin-1-yl]methanone] | > 1 µM | 0.63 µM | 0.91 µM | > 1 µM |
| O=C(NC1CC1)[C@H]1CC[C@H](c2nnn3cnc4[nH]ccc4c23)CC1 [compound 359, trans-N-cyclopropyl-4-(7H-pyrrolo[3,2-e][1,2,3]triazolo[1,5-c]pyrimidin-1-yl)cyclohexanecarboxamide] | > 1 µM | 0.042 µM | 0.22 µM | 0.56 µM |
| O=C(NCCO)[C@H]1CC[C@H](c2nnn3cnc4[nH]ccc4c23)CC1 [compound 360, trans-N-(2-hydroxyethyl)-4-(7H-pyrrolo[3,2-e][1,2,3]triazolo[1,5-c]pyrimidin-1-yl)cyclohexanecarboxamide] | > 1 µM | 0.026 µM | 0.1 µM | 0.33 µM |
| O=C([C@H]1CC[C@H](c2nnn3cnc4[nH]ccc4c23)CC1)N1CC(O)C1 [compound 361, [trans-4-(7H-pyrrolo[3,2-e][1,2,3]triazolo[1,5-c]pyrimidin-1-yl)cyclohexyl](3-hydroxyazetidin-1-yl)methanone] | > 1 µM | 0.089 µM | 0.25 µM | > 1 µM |
| N#Cc1ccc(CCNC(=O)[C@H]2CC[C@H](c3nnn4cnc5[nH]ccc5c34)CC2)cc1 [compound 362, trans-N-(4-cyanophenethyl)-4-(7H-pyrrolo[3,2-e][1,2,3]triazolo[1,5-c]pyrimidin-1-yl)cyclohexanecarboxamide] | > 1 µM | 0.0074 µM | 0.057 µM | > 1 µM |
| N#CC1CN(C(=O)[C@H]2CC[C@H](c3nnn4cnc5[nH]ccc5c34)CC2)C1 [compound 363, 1-[trans-4-(7H-pyrrolo[3,2-e][1,2,3]triazolo[1,5-c]pyrimidin-1-yl)cyclohexanecarbonyl]azetidine-3-carbonitrile] | > 1 µM | 0.044 µM | 0.29 µM | > 1 µM |
| O=S(=O)(C[C@H]1CC[C@H](c2nnn3cnc4[nH]ccc4c23)CC1)C1CC1 [compound 366, 1-{trans-4-[(cyclopropylsulfonyl)methyl]cyclohexyl}-7H-pyrrolo[3,2-e][1,2,3]triazolo[1,5-c]pyrimidine] | 0.28 µM | 0.011 µM | 0.028 µM | 0.26 µM |
| IC[C@H]1CC[C@H](c2nnn3cnc4[nH]ccc4c23)CC1 [compound 367] | 0.054 µM | 0.00099 µM | 0.0043 µM | 0.0073 µM |
| O=S(=O)(C[C@H]1CC[C@H](c2nnn3cnc4[nH]ccc4c23)CC1)C(F)(F)F [compound 368, 1-(trans-4-{[(Trifluoromethyl)sulfonyl]methyl}cyclohexyl)-7H-pyrrolo[3,2-e][1,2,3]triazolo[1,5-c]pyrimidine] | 0.37 µM | 0.0013 µM | 0.0061 µM | 0.03 µM |
| [N-]=[N+]=NC[C@H]1CC[C@H](c2nnn3cnc4[nH]ccc4c23)CC1 [compound 369, 1-[trans-4-(Azidomethyl)cyclohexyl]-7H-pyrrolo[3,2-e][1,2,3]triazolo[1,5-c]pyrimidine] | 0.048 µM | 0.00033 µM | 0.0017 µM | 0.0092 µM |
| CC(C)(O)c1cn(C[C@H]2CC[C@H](c3nnn4cnc5[nH]ccc5c34)CC2)nn1 [compound 370, 2-(1-{[trans-4-(7H-Pyrrolo[3,2-e][1,2,3]triazolo[1,5-c]pyrimidin-1-yl)cyclohexyl]methyl}-1H-1,2,3-triazol-4-yl)propan-2-ol] | 0.59 µM | 0.0074 µM | 0.097 µM | > 1 µM |
| NC[C@H]1CC[C@H](c2nnn3cnc4[nH]ccc4c23)CC1 [compound 371, [trans-4-(7H-Pyrrolo[3,2-e][1,2,3]triazolo[1,5-c]pyrimidin-1-yl)cyclohexyl]methanamine] | 0.39 µM | 0.0033 µM | 0.035 µM | 0.18 µM |
| N#CCC(=O)NC[C@H]1CC[C@H](c2nnn3cnc4[nH]ccc4c23)CC1 [compound 372, N-{[trans-4-(7H-Pyrrolo[3,2-e][1,2,3]triazolo[1,5-c]pyrimidin-1-yl)cyclohexyl]methyl}-2-cyanoacetamide] | 0.23 µM | 0.0041 µM | 0.016 µM | 0.41 µM |
| O=C(CC(F)(F)F)NC[C@H]1CC[C@H](c2nnn3cnc4[nH]ccc4c23)CC1 [compound 373, N-{[trans-4-(7H-Pyrrolo[3,2-e][1,2,3]triazolo[1,5-c]pyrimidin-1-yl)cyclohexyl]methyl}-3,3,3-trifluoropropanamide] | 0.035 µM | 0.0015 µM | 0.011 µM | 0.53 µM |
| Cc1c(CN2CCC(c3nnn4cnc5[nH]ccc5c34)CC2)c(Cl)nn1CC(F)(F)F [compound 374, 1-{1-[(3-Chloro-5-methyl-1-(2,2,2-trifluoroethyl)-1H-pyrazol-4-yl)methyl]piperidin-4-yl}-7H-pyrrolo[3,2-e][1,2,3]triazolo[1,5-c]pyrimidine] | > 1 µM | 0.038 µM | 0.18 µM | > 1 µM |
| N#Cc1ccc(N2CCC(c3nnn4cnc5[nH]ccc5c34)CC2)cc1 [compound 376, 4-[4-(7H-Pyrrolo[3,2-e][1,2,3]triazolo[1,5-c]pyrimidin-1-yl)piperidin-1-yl]benzonitrile] | > 1 µM | 0.019 µM | 0.19 µM | > 1 µM |
| N#Cc1ccc(CN2CCC(c3nnn4cnc5[nH]cc(Cl)c5c34)CC2)cc1 [compound 377, 4-{[4-(9-Chloro-7H-pyrrolo[3,2-e][1,2,3]triazolo[1,5-c]pyrimidin-1-yl)piperidin-1-yl]methyl}benzonitrile] | 0.054 µM | 0.0045 µM | 0.017 µM | > 1 µM |
| N#CCCN(CCC#N)C1CCC(c2nnn3cnc4[nH]ccc4c23)CC1 (stereo not drawn) [compound 380, 3,3′-{[4-(7H-pyrrolo[3,2-e][1,2,3]triazolo[1,5-c]pyrimidin-1-yl)cyclohexyl]azanediyl}dipropanenitrile] | 0.2 µM | 0.002 µM | 0.0025 µM | 0.028 µM |
| OC1CN(C[C@H]2CC[C@@H](c3nnn4cnc5[nH]ccc5c34)CC2)C1 [compound 403, 1-{[cis-4-(7H-Pyrrolo[3,2-e][1,2,3]triazolo[1,5-c]pyrimidin-1-yl)cyclohexyl]methyl}azetidin-3-ol] | 0.44 µM | 0.04 µM | 0.3 µM | 0.81 µM |
| c1cc2c(ncn3nnc([C@H]4CC[C@@H](CNC5CC5)CC4)c23)[nH]1 [compound 406, N-{[cis-4-(7H-pyrrolo[3,2-e][1,2,3]triazolo[1,5-c]pyrimidin-1-yl)cyclohexyl]methyl}cyclopropanamine] | > 1 µM | 0.083 µM | 0.56 µM | 0.94 µM |
| N#CCC(=O)N(CC(F)(F)F)C[C@H]1CC[C@H](c2nnn3cnc4[nH]ccc4c23)CC1 [compound 407, N-{[trans-4-(7H-Pyrrolo[3,2-e][1,2,3]triazolo[1,5-c]pyrimidin-1-yl)cyclohexyl]methyl}-2-cyano-N-(2,2,2-trifluoroethyl)acetamide] | 0.31 µM | 0.0034 µM | 0.0073 µM | 0.13 µM |
| N#CCC(=O)N(CC#N)C[C@H]1CC[C@H](c2nnn3cnc4[nH]ccc4c23)CC1 [compound 408, N-{[trans-4-(7H-pyrrolo[3,2-e][1,2,3]triazolo[1,5-c]pyrimidin-1-yl)cyclohexyl]methyl}-2-cyano-N-(cyanomethyl)acetamide] | 0.22 µM | 0.0052 µM | 0.013 µM | 0.31 µM |
| N#CCC(=O)N(C[C@H]1CC[C@H](c2nnn3cnc4[nH]ccc4c23)CC1)C1CC1 [compound 409, N-{[trans-4-(7H-pyrrolo[3,2-e][1,2,3]triazolo[1,5-c]pyrimidin-1-yl)cyclohexyl]methyl}-2-cyano-N-cyclopropylacetamide] | 0.92 µM | 0.019 µM | 0.032 µM | 0.84 µM |
| Cc1ccc(CN(C[C@H]2CC[C@H](c3nnn4cnc5[nH]ccc5c34)CC2)C(=O)CC#N)o1 [compound 410, N-{[trans-4-(7H-pyrrolo[3,2-e][1,2,3]triazolo[1,5-c]pyrimidin-1-yl)cyclohexyl]methyl}-2-cyano-N-[(5-methylfuran-2-yl)methyl]acetamide] | 0.32 µM | 0.022 µM | 0.04 µM | 0.58 µM |
| O=C(CC(F)(F)F)N(CC(F)(F)F)C[C@H]1CC[C@H](c2nnn3cnc4[nH]ccc4c23)CC1 [compound 411, N-{[trans-4-(7H-Pyrrolo[3,2-e][1,2,3]triazolo[1,5-c]pyrimidin-1-yl)cyclohexyl]methyl}-3,3,3-trifluoro-N-(2,2,2-trifluoroethyl)propanamide] | 0.17 µM | 0.0043 µM | 0.015 µM | 0.36 µM |
| N#CCN(C[C@H]1CC[C@H](c2nnn3cnc4[nH]ccc4c23)CC1)C(=O)CC(F)(F)F [compound 412, N-{[trans-4-(7H-Pyrrolo[3,2-e][1,2,3]triazolo[1,5-c]pyrimidin-1-yl)cyclohexyl]methyl}-N-(cyanomethyl)-3,3,3-trifluoropropanamide] | 0.054 µM | 0.0026 µM | 0.0056 µM | 0.32 µM |
| N#CCN(CC1CC1)C[C@H]1CC[C@H](c2nnn3cnc4[nH]ccc4c23)CC1 [compound 414, 2-({[trans-4-(7H-pyrrolo[3,2-e][1,2,3]triazolo[1,5-c]pyrimidin-1-yl)cyclohexyl]methyl}(cyclopropylmethyl)amino)acetonitrile] | > 1 µM | 0.0095 µM | 0.13 µM | 0.11 µM |
